Test results as given in patent US5639783A, “Ketone derivatives” (Mitsubishi Chemical Corporation, priority 1991, dated 1997).

These compounds were tested against T1, m-calpain (Rattus norvegicus, UniProt Q07009) (assay: Thiol protease inhibitory activity, m-calpain purified from rat brain). Settings: Table 4.
T1 construct: m-calpain was purified from rat brain; from tissue; host or cells: rat brain
T1 sequence (Q07009 20-700 limits assumed): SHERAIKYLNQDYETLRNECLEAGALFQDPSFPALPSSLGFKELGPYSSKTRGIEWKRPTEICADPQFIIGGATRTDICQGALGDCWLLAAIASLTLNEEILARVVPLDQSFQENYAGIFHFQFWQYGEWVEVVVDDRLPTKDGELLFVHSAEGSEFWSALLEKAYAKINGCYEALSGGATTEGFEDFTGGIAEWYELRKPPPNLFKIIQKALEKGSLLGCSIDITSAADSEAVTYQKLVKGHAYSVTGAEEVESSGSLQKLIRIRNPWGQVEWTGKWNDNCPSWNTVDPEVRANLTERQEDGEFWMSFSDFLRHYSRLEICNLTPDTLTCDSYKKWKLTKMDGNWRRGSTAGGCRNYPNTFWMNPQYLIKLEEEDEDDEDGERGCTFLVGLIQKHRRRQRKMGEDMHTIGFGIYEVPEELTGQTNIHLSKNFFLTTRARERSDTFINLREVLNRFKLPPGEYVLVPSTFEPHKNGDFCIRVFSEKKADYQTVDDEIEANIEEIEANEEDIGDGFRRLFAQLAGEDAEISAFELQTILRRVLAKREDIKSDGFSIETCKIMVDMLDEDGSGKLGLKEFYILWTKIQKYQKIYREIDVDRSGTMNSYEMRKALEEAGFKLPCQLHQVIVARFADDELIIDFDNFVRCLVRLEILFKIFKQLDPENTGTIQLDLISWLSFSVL
T1 sequence (Q64537 1-270 partner): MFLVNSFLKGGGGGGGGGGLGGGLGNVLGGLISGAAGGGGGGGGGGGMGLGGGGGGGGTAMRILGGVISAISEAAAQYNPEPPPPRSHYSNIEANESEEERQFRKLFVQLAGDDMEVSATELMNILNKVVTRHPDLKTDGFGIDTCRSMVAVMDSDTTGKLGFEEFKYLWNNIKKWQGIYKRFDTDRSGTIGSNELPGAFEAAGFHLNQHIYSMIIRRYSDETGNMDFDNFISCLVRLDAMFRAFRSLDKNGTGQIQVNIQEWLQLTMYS
Type: biochemical
Experimental: Inhibitory activity against papain (P-3125, Sigma) and cathepsin B (C-6286, Sigma) was assayed according to the method described in a literature [Biochemical Journal, 201, 189 (1982)]. Cathepsin L was purified from rat kidney according to the method in a literature [Journal of Biochemistry, 100, 35 (1986)], and the inhibitory activity against it was assayed in the same manner as described in the above literature for cathepsin B. Furthermore, m-calpain was purified from rat brain according to a known method [Journal of Biological Chemistry, 254, p. 3210 (1984)] and the inhibitory activity against it was assayed by a method described in a literature [Journal of Biological Chemistry, 259, 12489 (1984)]. It is evident from Tables 3 and 4 that the compounds of the present invention have a potent inhibitory activity against thiol proteases such as papain, cathepsin B, cathepsin L or m-calpain.

With `CCCC[C@H](NC(=O)[C@H](CC(C)C)NC(=O)OCc1cccc(C#N)c1)C(=O)CSCc1ccco1` [26 (No. 57), (s)-3-[(s)-2-(3-cyanobenzyloxycarbonylamino)-4-methylvalerylamino]-1-furfurylthio-2-heptanone] as the compound, how does the IC50 read?
Its IC50 is 2.8 µM.

`CCCC[C@H](NC(=O)[C@H](CC(C)C)NC(=O)C1CCCCC1)C(=O)CSCc1ccco1` [29 (No. 65), (s)-3-((s)-2-cyclohexylcarbonylamino-4-methylvalerylamino)-1-furfurylthio-2-heptanone] was tested. Which IC50 did it give?
The IC50 was 3.6 µM.

`CCCC[C@H](NC(=O)[C@H](CC(C)C)NC(=O)Cc1cccc2c1OCO2)C(=O)CSCc1ccco1` [32 (No. 73), (s)-1-furfurylthio-3-[(s)-4-methyl-2-(2,3-methylenedioxyphenylacetylamino)valerylamino]-2-heptanone] was tested. Which IC50 did it give?
Its IC50 is 6.2 µM.

Which IC50 does the source give for `CCCC[C@H](NC(=O)[C@H](CC(C)C)NC(=O)COc1ccccc1OC)C(=O)CSCc1ccco1` [47 (No. 102), (s)-1-furfurylthio-3-[(s)-2-(2-methoxyphenoxyacetylamino)-4-methylvalerylamino]-2-heptanone] here?
The IC50 was 1.3 µM.

Which IC50 does the source give for `CCCC[C@H](NC(=O)[C@H](CC(C)C)NC(=O)COc1ccc(OC)cc1)C(=O)CSCc1ccco1` [48 (No. 104), (s)-1-furfurylthio-3-[(s)-2-(4-methoxyphenoxyacetylamino)-4-methylvalerylamino]-2-heptanone] here?
Its IC50 is 1 µM.

With `CCCC[C@H](NC(=O)[C@H](CC(C)C)NC(=O)c1ccccc1F)C(=O)CSCc1ccco1` [55 (No. 117), (s)-3-[(s)-2-(2-fluorobenzoylamino)-4-methylvalerylamino]-1-furfurylthio-2-heptanone] as the compound, how does the IC50 read?
The IC50 was 1.5 µM.

`CCCC[C@H](NC(=O)[C@H](CC(C)C)NC(=O)c1cccc(F)c1)C(=O)CSCc1ccco1` [56 (No. 118), (s)-3-[(s)-2-(3-fluorobenzoylamino)-4-methylvalerylamino]-1-furfurylthio-2-heptanone] was tested. Which IC50 did it give?
Its IC50 is 5.2 µM.

Which IC50 does the source give for `CCCC[C@H](NC(=O)[C@H](CC(C)C)NC(=O)c1ccc(F)cc1)C(=O)CSCc1ccco1` [57 (No. 119), (s)-3-[(s)-2-(4-fluorobenzoylamino)-4-methylvalerylamino]-1-furfurylthio-2-heptanone] here?
The IC50 was 5.3 µM.

How did the IC50 turn out when `CCCC[C@H](NC(=O)[C@H](CC(C)C)NC(=O)c1cccc(F)c1F)C(=O)CSCc1ccco1` [58 (No. 120), (s)-3-[(s)-2-(2,3-difluorobenzoylamino)-4-methylvalerylamino]-1-furfurylthio-2-heptanone] was run?
The IC50 was 1.6 µM.

With `CCCC[C@H](NC(=O)[C@H](CC(C)C)NC(=O)c1ccc(F)cc1F)C(=O)CSCc1ccco1` [59 (No. 121), (s)-3-[(s)-2-(2,4-difluorobenzoylamino)-4-methylvalerylamino]-1-furfurylthio-2-heptanone] as the compound, how does the IC50 read?
Its IC50 is 4.2 µM.

Which IC50 does the source give for `CCCC[C@H](NC(=O)[C@H](CC(C)C)NC(=O)c1cc(F)ccc1F)C(=O)CSCc1ccco1` [60 (No. 122), (s)-3-[(s)-2-(2,5-difluorobenzoylamino)-4-methylvalerylamino]-1-furfurylthio-2-heptanone] here?
The IC50 was 1.3 µM.

For `CCCC[C@H](NC(=O)[C@H](CC(C)C)NC(=O)c1c(F)cccc1F)C(=O)CSCc1ccco1` [61 (No. 123), (s)-3-[(s)-2-(2,6-difluorobenzoylamino)-4-methylvalerylamino]-1-furfurylthio-2-heptanone], which IC50 is on record?
Its IC50 is 1.9 µM.

Which IC50 does the source give for `CCCC[C@H](NC(=O)[C@H](CC(C)C)NC(=O)c1ccc(F)c(F)c1)C(=O)CSCc1ccco1` [62 (No. 124), (s)-3-[(s)-2-(3,4-difluorobenzoylamino)-4-methylvalerylamino]-1-furfurylthio-2-heptanone] here?
The IC50 was 4.3 µM.

`CCCC[C@H](NC(=O)[C@H](CC(C)C)NC(=O)c1cc(F)cc(F)c1)C(=O)CSCc1ccco1` [63 (No. 125), (s)-3-[(s)-2-(3,5-difluorobenzoylamino)-4-methylvalerylamino]-1-furfurylthio-2-heptanone] was tested. Which IC50 did it give?
The IC50 was 5.5 µM.

With `CCCC[C@H](NC(=O)[C@H](CC(C)C)NC(=O)c1ccc(F)c(F)c1F)C(=O)CSCc1ccco1` [64 (No. 126), (s)-1-furfurylthio-3-[(s)-4-methyl-2-(2,3,4-trifluorobenzoylamino)valerylamino]-2-heptanone] as the compound, how does the IC50 read?
The IC50 was 4.3 µM.

`CCCC[C@H](NC(=O)[C@H](CC(C)C)NC(=O)c1c(F)ccc(F)c1F)C(=O)CSCc1ccco1` [65 (No. 128), (s)-1-furfurylthio-3-[(s)-4-methyl-2-(2,3,6-trifluorobenzoylamino)valerylamino]-2-heptanone] was tested. Which IC50 did it give?
The IC50 was 5 µM.

For `CCCC[C@H](NC(=O)[C@H](CC(C)C)NC(=O)c1cc(F)c(F)c(F)c1)C(=O)CSCc1ccco1` [66 (No. 130), (s)-1-furfurylthio-3-[(s)-4-methyl-2-(3,4,5-trifluorobenzoylamino)valerylamino]-2-heptanone], which IC50 is on record?
The IC50 was 1.4 µM.

For `CCCC[C@H](NC(=O)[C@H](CC(C)C)NC(=O)c1cc(F)c(F)c(F)c1F)C(=O)CSCc1ccco1` [67 (No. 132), (s)-1-furfurylthio-3-[(s)-4-methyl-2-(2,3,4,5-tetrafluorobenzoylamino)valerylamino]-2-heptanone], which IC50 is on record?
The IC50 was 2.1 µM.

Which IC50 does the source give for `CCCC[C@H](NC(=O)[C@H](CC(C)C)NC(=O)c1c(F)c(F)c(F)c(F)c1F)C(=O)CSCc1ccco1` [68 (No. 135), (s)-1-furfurylthio-3-((s)-4-methyl-2-pentafluorobenzoylaminovalerylamino)-2-heptanone] here?
The IC50 was 2.1 µM.

How did the IC50 turn out when `CCCC[C@H](NC(=O)[C@H](CC(C)C)NC(=O)c1ccccc1C)C(=O)CSCc1ccco1` [69 (No. 140), (s)-1-furfurylthio-3-[(s)-4-methyl-2-(2-toluoylamino)valerylamino]-2-heptanone] was run?
Its IC50 is 5 µM.

Which IC50 does the source give for `CCCC[C@H](NC(=O)[C@H](CC(C)C)NC(=O)c1ccc(C)cc1)C(=O)CSCc1ccco1` [71 (No. 142), (s)-1-furfurylthio-3-[(s)-4-methyl-2-(4-toluoylamino)valerylamino]-2-heptanone] here?
Its IC50 is 4.2 µM.

`CCCC[C@H](NC(=O)[C@H](CC(C)C)NC(=O)c1ccccc1OC)C(=O)CSCc1ccco1` [77 (No. 151), (s)-1-furfurylthio-3-[(s)-2-(2-methoxybenzoylamino)-4-methylvalerylamino]-2-heptanone] was tested. Which IC50 did it give?
Its IC50 is 1.2 µM.

With `CCCC[C@H](NC(=O)[C@H](CC(C)C)NC(=O)COc1cccc(OC)c1)C(=O)CSCc1ccco1` [78 (No. 103), (s)-1-furfurylthio-3-[(s)-2-(3-methoxyphenoxyacetylamino)-4-methylvalerylamino]-2-heptanone] as the compound, how does the IC50 read?
The IC50 was 6 µM.

For `CCCC[C@H](NC(=O)[C@H](CC(C)C)NC(=O)c1ccc(OC)cc1)C(=O)CSCc1ccco1` [79 (No. 153), (s)-1-furfurylthio-3-[(s)-2-(4-methoxybenzoylamino)-4-methylvalerylamino]-2-heptanone], which IC50 is on record?
The IC50 was 1.9 µM.

For `CCCC[C@H](NC(=O)[C@H](CC(C)C)NC(=O)c1cc(OC)cc(OC)c1)C(=O)CSCc1ccco1` [80 (No. 155), (s)-3-[(s)-2-(3,5-dimethoxybenzoylamino)-4-methylvalerylamino]-1-furfurylthio-2-heptanone], which IC50 is on record?
The IC50 was 4.2 µM.

How did the IC50 turn out when `CCCC[C@H](NC(=O)[C@H](CC(C)C)NC(=O)c1ccc(C(=O)OC)cc1)C(=O)CSCc1ccco1` [81 (No. 157), (s)-1-furfurylthio-3-[(s)-2-(4-methoxycarbonylbenzoylamino)-4-methylvalerylamino]-2-heptanone] was run?
The IC50 was 3.4 µM.

For `CCCC[C@H](NC(=O)[C@H](CC(C)C)NC(=O)C=Cc1ccc(OC)cc1)C(=O)CSCc1ccco1` [84 (No. 165), (s)-1-furfurylthio-3-[(s)-2-(4-methoxycinnamoylamino)-4-methylvalerylamino]-2-heptanone], which IC50 is on record?
The IC50 was 2.1 µM.

How did the IC50 turn out when `CCCC[C@H](NC(=O)[C@H](CC(C)C)NC(=O)C=Cc1ccc(OC)cc1OC)C(=O)CSCc1ccco1` [85 (No. 166)] was run?
Its IC50 is 1.3 µM.

How did the IC50 turn out when `CCCC[C@H](NC(=O)[C@H](CC(C)C)NC(=O)c1cc2cccc(F)c2o1)C(=O)CSCc1ccco1` [93 (No. 182), (s)-3-[(s)-2-(7-fluoro-2-benzofuranylcarbonylamino)-4-methylvalerylamino]-1-furfurylthio-2-heptanone] was run?
Its IC50 is 7.8 µM.

With `CCCC[C@H](NC(=O)[C@H](CC(C)C)NC(=O)OCc1ccccc1)C(=O)CSCc1ccccn1` [105 (No. 226), (s)-3-((s)-2-benzyloxycarbonylamino-4-methylvalerylamino)-1-(2-pyridylmethylthio)-2-heptanone] as the compound, how does the IC50 read?
The IC50 was 1.3 µM.
